Data as given in patent US20220016205A1, “METHODS OF OVERCOMING RESISTANCE TO IMMUNE CHECKPOINT INHIBITORS” (Board of Regents, The University of Texas System, priority 2018, published 2022).

Experiments:
peritoneal macrophages [1] = experiment: qPCR in peritoneal macrophages co-cultured with 344SQR cells (transwell) with follistatin or K02288; type: cell-based, mouse; conditions: 344SQR co-culture plus K02288 compared with 344SQR only (FIG. 3F)
RAW 264.7 cells [2] = experiment: qPCR in RAW 264.7 cells co-cultured with 344SQR cells (transwell) with follistatin or K02288; type: cell-based, murine; conditions: 344SQR co-culture plus K02288 compared with 344SQR only (FIG. 3E)
Text: (§1) Quantitative polymerase chain reaction (qPCR). Total RNA was isolated from cells and tumors with Triazol (Life Technologies) according to the manufacturer's protocol. For studies of BMP7, p38α, IL-1α, IL-1β, TNF-α, RANTES, IL-2, and IFN-γ expression, mRNA was retrotranscribed with the iScript™ gDNA Clear cDNA Synthesis Kit (BioRad) and analyzed by qPCR using SYBR Green (Life Technologies) with specific primers according to the manufacturer's protocol. The comparative Ct method was used to calculate the relative abundance of mRNAs compared with ACTB (beta-actin) expression for cancer cells or CD45 expression for immune cells.
Co-culture experiments and treatments. Viable cells were counted with a hemocytometer (0.4% Trypan blue solution) and diluted to 40,000 cells per well in 24-wells plates. Cells from 344SQP, 344SQR, 344SQ ctrl, or 344SQ-shBMP7 tumors were seeded at the top inserts (24-mm Transwell with 0.4-μm pore polycarbonate membrane insert, Sigma-Aldrich), and RAW 264.7 or CD4^+ T cells were seeded at the bottom of the transwell system. […] RNA was then isolated from RAW 264.7 or CD4^+ T cells and analyzed for p38α, IL-1α, IL-1β, TNF-α, RANTES, IL-2 and IFN-γ expression with qPCR. […]

T lymphocytes = conditions: Matsuda et al., 1998; cited from earlier work
T-cell = conditions: Crawley et al., 1997; cited from earlier work
344SQR shBMP7 tumors = experiment: Tumor growth, survival and TIL flow cytometry of mice with 344SQR shBMP7 (BMP7-knockdown) tumors treated with checkpoint antibodies; type: in vivo, 129Sv/Ev mice; conditions: antibody 10 mg/kg twice a week for 2 weeks in combination with BMP7 knockdown, compared with control (FIGS. 5A, 5I, 5J)
Method: In vivo studies. All mouse studies were approved by the Institutional Animal Care and Use Committee (IACUC) of The University of Texas MD Anderson Cancer Center before their initiation; animal care was provided according to IACUC standards, and all mice had been bred and were maintained in our own specific pathogen-free mouse colony. For RRBS, RPPA and TILs studies, primary tumors were established by subcutaneous injection of 344SQP or 344SQR cells (0.5×10^6 in 100 μL of sterile phosphate buffered saline [PBS]) into the leg of syngeneic 129Sv/Ev mice (female, 12-16 weeks old). Mice were then given intraperitoneal injections of anti-PD1 or control IgG antibodies (10 mg/kg) (Bio X cell), starting on day 4 after tumor cell inoculation and continuing twice per week for a total of 4 doses. At 24 hours after the last anti-PD1 treatment, tumor tissues were collected for DNA (2 mice/group) and protein isolation (2 or 3 mice/group). For TILs isolation, tumor tissues (3 mice/group) were collected a week after the last treatment with anti-PD1. […] Tumors were measured with calipers three times per week and recorded as tumor volume (in mm^3)=width^2×length/2. […] Mouse survival rates were analyzed by using the Kaplan-Meier method and compared with log-rank tests.
Tissue processing and flow cytometry. […] All samples were analyzed with an LSRII flow cytometer and FlowJo software (version 10.0.7). […]

peritoneal macrophages [3] = experiment: qPCR of p38α, IL-1α, IL-1β, TNF-α, RANTES in peritoneal macrophages treated with BMP7 or BMP7 plus follistatin; type: cell-based, mouse; conditions: BMP7 compared to untreated control (FIG. 3G)
Text: as §1
(§2) Co-culture experiments and treatments. Viable cells were counted with a hemocytometer (0.4% Trypan blue solution) and diluted to 40,000 cells per well in 24-wells plates. Cells from 344SQP, 344SQR, 344SQ ctrl, or 344SQ-shBMP7 tumors were seeded at the top inserts (24-mm Transwell with 0.4-μm pore polycarbonate membrane insert, Sigma-Aldrich), and RAW 264.7 or CD4^+ T cells were seeded at the bottom of the transwell system. […] RNA was then isolated from RAW 264.7 or CD4^+ T cells and analyzed for p38α, IL-1α, IL-1β, TNF-α, RANTES, IL-2 and IFN-γ expression with qPCR.

RAW 264.7 cells [4] = experiment: qPCR of p38α, IL-1α, IL-1β, TNF-α, RANTES in RAW 264.7 cells treated with BMP7 or BMP7 plus follistatin; type: cell-based, murine; conditions: BMP7 compared to untreated control, 24 or 48 hours (FIG. 3G)
Text: as §1, §2

RAW 264.7 cells [5] = experiment: p38a silencing with siRNAs in RAW 264.7 cells, qPCR / expression analysis; type: cell-based, murine; conditions: BMP7 treatment of cells treated with siRNAs targeting p38a (FIG. 3K)
Text: as §1
Transfection siRNA. siRNA targeting p38a (Life Technologies, Cat #4390771) and its respective negative-control negative control (Life Technologies, Cat #4390843) were reverse-transfected into RAW 264.7 macrophages with Lipofectamine 2000 (Life Technologies) to a final concentration of […].

CD4^+ T cells = experiment: qPCR of p38α, IFN-γ, IL-2 in activated CD4+ T cells treated with BMP7 or BMP7 plus follistatin; type: cell-based, mouse
Text: as §1
Co-culture experiments and treatments. Viable cells were counted with a hemocytometer (0.4% Trypan blue solution) and diluted to 40,000 cells per well in 24-wells plates. Cells from 344SQP, 344SQR, 344SQ ctrl, or 344SQ-shBMP7 tumors were seeded at the top inserts (24-mm Transwell with 0.4-μm pore polycarbonate membrane insert, Sigma-Aldrich), and RAW 264.7 or CD4^+ T cells were seeded at the bottom of the transwell system. CD4^+ T cells were isolated from splenocytes by using Dynabeads Untouched Mouse CD4 Cells Kit (Thermo Fisher Scientific—Life Technologies, Catalog #11416D) and activated with LEAF purified anti-mouse CD3c antibody (5 μg/mL) and LEAF purified anti-mouse CD28 antibody (1 μg/mL) (Biolegend). […] RNA was then isolated from RAW 264.7 or CD4^+ T cells and analyzed for p38α, IL-1α, IL-1β, TNF-α, RANTES, IL-2 and IFN-γ expression with qPCR.
Next, CD4^+ T cells were co-cultured with 344SQP or 344SQR cells, and 344SQR ctrl or 344SQR shBMP7 cells, and the expression of p38α, IFN-γ, and IL-2 analyzed. […] To confirm that these findings depended on BMP7 and not on some other secreted molecule, CD4^+ T cells were treated with BMP7 with or without follistatin and p38α, IFN-γ, and IL-2 expression evaluated. […]

COc1cc(-c2cc(-c3cccc(O)c3)cnc2N)cc(OC)c1OC [K02288, reference compound]
expression of p38a and p38α-regulated cytokines and chemokines (peritoneal macrophages [1]): lower expression | expression of p38a and p38α-regulated cytokines and chemokines (RAW 264.7 cells [2]): lower expression

C[S+]([O-])c1ccc(-c2nc(-c3ccncc3)c(-c3ccc(F)cc3)[nH]2)cc1 (stereo not shown) [SB203580]
transcriptional activation of the IL-2 promoter (T lymphocytes): suppressed the transcriptional activation | T-cell proliferation in response to IL-2 (T-cell): suppressed T-cell proliferation

anti-PDL1: anti-PDL1 (Durvalumab, Pharmacy MD Anderson)
survival (344SQR shBMP7 tumors): increased survival

B1: BMP7: bone morphogenetic protein (BMP)-7, secreted protein of the TGF-β superfamily (R&D Systems, Catalog #5666-BP-010) (protein, UniProt P18075 293-431, looked up)
Bone morphogenetic protein 7: STGSKQRSQNRSKTPKNQEALRMANVAENSSSDQRQACKKHELYVSFRDLGWQDWIIAPEGYAAYYCEGECAFPLNSYMNATNHAIVQTLVHFINPETVPKPCCAPTQLNAISVLYFDDSSNVILKKYRNMVVRACGCH
expression of p38a and p38α-regulated cytokines and chemokines (peritoneal macrophages [3]): lower expression | expression of p38a and p38α-regulated cytokines and chemokines (RAW 264.7 cells [4]): lower expression | expression of TNF-α, IL1-β, and CD206 (RAW 264.7 cells [5]): did not alter | p38α expression (CD4^+ T cells; effect of BMP7): led to changes | IFN-γ and IL-2 expression (CD4^+ T cells; effect of BMP7, via p38α): decreased
